# Data published in patent US20260376293A1, “METHODS FOR STUDYING GPR158 PHARMACOLOGY AND IDENTIFICATION OF ITS LIGANDS” (UNIVERSITY OF FLORIDA RESEARCH FOUNDATION, INCORPORATED, priority 2022, published 2026).
# Target: T1, GPR158 (Homo sapiens, UniProt Q5T848)
# T1 sequence (Q5T848 24-1215): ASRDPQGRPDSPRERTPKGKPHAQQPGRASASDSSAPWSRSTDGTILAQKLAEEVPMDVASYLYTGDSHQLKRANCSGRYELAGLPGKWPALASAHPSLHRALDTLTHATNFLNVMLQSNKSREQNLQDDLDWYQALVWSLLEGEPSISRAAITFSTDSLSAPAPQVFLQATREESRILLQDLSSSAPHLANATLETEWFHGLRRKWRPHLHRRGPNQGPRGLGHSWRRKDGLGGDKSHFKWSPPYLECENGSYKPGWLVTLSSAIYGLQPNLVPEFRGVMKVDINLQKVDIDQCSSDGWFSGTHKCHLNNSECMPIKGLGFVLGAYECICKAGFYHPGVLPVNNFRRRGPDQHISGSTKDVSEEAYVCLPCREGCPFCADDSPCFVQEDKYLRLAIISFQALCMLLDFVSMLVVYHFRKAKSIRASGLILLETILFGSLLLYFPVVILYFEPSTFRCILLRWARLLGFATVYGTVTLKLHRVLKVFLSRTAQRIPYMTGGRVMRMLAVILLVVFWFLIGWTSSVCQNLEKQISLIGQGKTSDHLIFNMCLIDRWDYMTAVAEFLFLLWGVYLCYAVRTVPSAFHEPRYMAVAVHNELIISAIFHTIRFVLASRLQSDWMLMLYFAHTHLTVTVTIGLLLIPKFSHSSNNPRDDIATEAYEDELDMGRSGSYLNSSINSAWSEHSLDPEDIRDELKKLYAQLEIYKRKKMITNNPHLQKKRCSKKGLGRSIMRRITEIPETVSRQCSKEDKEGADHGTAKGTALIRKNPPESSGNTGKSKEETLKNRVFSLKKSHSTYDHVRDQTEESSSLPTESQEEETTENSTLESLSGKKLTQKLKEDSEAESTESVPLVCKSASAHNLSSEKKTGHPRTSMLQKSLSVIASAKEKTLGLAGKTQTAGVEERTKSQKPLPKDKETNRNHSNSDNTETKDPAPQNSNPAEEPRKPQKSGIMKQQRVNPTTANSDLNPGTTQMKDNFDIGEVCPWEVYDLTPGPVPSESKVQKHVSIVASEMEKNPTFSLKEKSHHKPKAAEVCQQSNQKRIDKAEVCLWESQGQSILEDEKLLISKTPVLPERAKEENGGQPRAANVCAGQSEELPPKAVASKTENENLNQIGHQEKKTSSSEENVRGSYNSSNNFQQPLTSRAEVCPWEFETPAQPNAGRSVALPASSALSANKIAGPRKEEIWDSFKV
# Test: Radioligand competition binding assay vs ^3H-glycine
# Set-up: expressed in transfected cells; host or cells: HEK293FT
# Conditions: for IC50: membranes from HEK293 cells expressing GPR158, 4 experiments, mean±s.e.m., read-out: IC50 (displacement of ^3H-glycine)
# Method: FIG. 8. Radioligand competition binding assay comparing binding of glycine and taurine to GPR158 Membranes from HEK293 cells expressing GPR158 were first incubated with ^3H-Glycine setting binding to 100% and then exposed to increasing concentrations of cold glycine (open circles) or cold taurine (circles with angled-line fill). Data shown are from 4 independent experiments, mean±s.e.m.
# Next, the inventors performed radioligand binding assays examining binding of [^3H]-labeled glycine to HEK293 cells expressing GPR158 (FIG. 7A). […] The inventors have then isolated cellular membranes and conducted classical radioligand titration experiments (FIG. 9D). The inventors detected saturable [^3H]-glycine binding to membranes containing GPR158 is substantial excess over linear non-specific binding to membranes devoid of GPR158 (FIG. 9E). Scatchard analysis (FIG. 9F) estimated Kd of GPR158 for glycine to be ~3 μM. The inventors further performed binding competition experiments directly comparing the ability of glycine and taurine to displace [^3H]-labeled glycine bound to GPR158 (FIG. 8).
# The functional data shown represent the average±SEM of 3-9 individual experiments each performed in triplicate or indicated in each figure and expressed as means±standard error means (s.e.m). For cAMP assays, cells transfected with empty vector were used as control and one-way ANOVA test was performed. For the GAP assay, cells with the same transfection conditions were compared on their treatment and two-way ANOVA test was performed. The non-linear regression curve was used to fit on the dose response curve giving the IC50 value. For the flow cytometry and radioligand binding assays cells transfected with empty vector were used as control and two-way ANOVA test was performed. For the radioligand competition assay, dissociation-One phase exponential decay was used to fit on data and give the Ki value. For the ITC dose response curve, the non-linear regression curve was used to fit on the curve. […] For the electrophysiology experiments changes was assessed in nonparametric t-test; Wilcoxon test. […]
IC50 [µM],affinity of taurine relative to glycine (competition binding IC50 comparison),Compound
~3,,NCC(=O)O [glycine]
~6,two fold lower affinity,"NCCS(=O)(=O)O [taurine, 2-aminoethanesulfonic acid]"
